Test results reported in US7897568B2, “Compositions for treatment of cancer” (priority 2006, dated 2011).
Where a SMILES comes first, the peptide text is derived from it. Where no end group is shown, it is not given here.

Experiments:
SNCG = SNCG (Homo sapiens, UniProt O76070); test: ANS fluorescence of the SNCG-ANK peptide complex; assay type: binding; set-up: The SNCG coding region was amplified from the human cDNA clone; GST (N, cleaved yes); made in house; host or cells: Escherichia coli BL21 (DE3); conditions: SNCG 30 μM, ANK peptide 240 μM, 0.02 mg/mL ANS; versus peptide only
Chain of SNCG (O76070 whole entry): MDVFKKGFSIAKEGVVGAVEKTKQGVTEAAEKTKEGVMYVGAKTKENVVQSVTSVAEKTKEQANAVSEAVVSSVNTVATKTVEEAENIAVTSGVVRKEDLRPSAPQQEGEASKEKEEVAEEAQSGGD
Excerpt: ANS fluorescence was also utilized to study the conformational properties of SNCG and the SNCG-ANK peptide interaction (See FIG. 2C). Changes in ANS fluorescence intensity are frequently used to monitor formation of partially folded intermediates during protein unfolding and refolding (Semisotnov et al. Biopolymers 1991 31:119-128), as well as to analyze the hydrophobic surfaces of proteins (Stryer, L. J. Mol. Biol. 1965 13:482-495). The interaction of ANS with solvent-exposed hydrophobic clusters is accompanied by a considerable increase in the dye fluorescence intensity and a pronounced blue shift of the fluorescence maximum. […] The addition of ANK peptide induced significant changes in ANS fluorescence properties, including a dramatic increase in the fluorescence intensity and a blue shift in λmax. […] Importantly, formation of the SNCG-ANK complex is accompanied by an approximate 20% decrease in ANS fluorescence intensity of only peptide which is affected by the presence of SNCG, confirming the interaction between SNCG and ANK peptide.

SNCG-BubR1 interaction = target: T1, SNCG-BubR1 interaction (Homo sapiens, UniProt O76070); test: Co-immunoprecipitation of SNCG and myc-BubR1 with or without EGFP-ANK in COS7 cells; assay type: cell-based; conditions: COS7 cells expressing BubR1, SNCG and EGFP-ANK
T1 construct: expressed in transfected cells; host or cells: COS7
T1 sequence (O76070 whole entry): as above

MCF7-SNCG cells = test: Mitotic index and apoptosis by DAPI staining after paclitaxel; assay type: cell-based; conditions: SNCG cells expressing EGFP-ANK versus pEGFP, paclitaxel 18 hours
Experimental: FIG. 7A through D show expression of EGFP-ANK disrupting the SNCG-mediated inhibition of mitotic checkpoint function as measured by microscopy and flow cytometry. The bar graphs show the expression of EGFP-ANK disrupting the SNCG-mediated inhibition of mitotic checkpoint function, using (FIG. 7A) DAPI and (FIG. 7B) anti-phospho-H^3 staining. For graphs of FIGS. 7A and 7B, the cells treated with 0.5 μM paclitaxel for 18 hours or untreated control cells were fixed with 4% paraformaldehyde for 20 minutes at room temperature. In both cases, the cells were then stained with 1 μg/ml of DAPI or 2 μg/ml anti-phospho-H3 primary and Texas Red goat anti-rabbit secondary antibodies (Invitrogen). Green fluorescent cells were identified for positive transfected cells. For each sample, 200-300 cells randomly chosen from 5 different views under a Nikon fluorescent microscope were scored for interphase, mitotic, or apoptotic based upon nuclei morphology. The data shown were derived from three separate transfections (p<0.01). […]
Two days after transfection, cells were exposed to paclitaxel for 18 hours and numbers of mitotic arrested and apoptotic cells were counted after DAPI staining. […] These cells were also probed with rabbit polyclonal anti-phospho-H^3 and the mitotic index was calculated according to the proportion of the number of H^3 stained EGFP positive cells to total EGFP positive cells (FIG. 7B). […]

| Compound | decrease in ANS fluorescence intensity on formation of the SNCG-ANK complex (SNCG) [%] | myc-BubR1 signal in anti-SNCG IP complex (SNCG-BubR1 interaction) | increase in the number of mitotic arrested cells (MCF7-SNCG cells) [fold] |
| --- | --- | --- | --- |
| CC[C@H](C)[C@H](NC(=O)[C@H](CS)NC(=O)CNC(=O)[C@H](CC(C)C)NC(=O)[C@H](Cc1c[nH]cn1)NC(=O)CNC(=O)[C@H](Cc1c[nH]cn1)NC(=O)[C@H](CCC(N)=O)NC(=O)[C@H](CO)NC(=O)[C@H](C)NC(=O)[C@@H](NC(=O)[C@H](Cc1c[nH]cn1)NC(=O)[C@H](CC(C)C)NC(=O)[C@H](C)NC(=O)[C@H](CO)NC(=O)[C@H](CC(N)=O)NC(=O)CNC(=O)[C@H](CCCCN)NC(C)=O)C(C)C)C(=O)N[C@@H](CCC(N)=O)C(=O)N[C@H](C(=O)N[C@@H](CC(C)C)C(=O)N[C@H](C(=O)N[C@@H](CCCNC(=N)N)C(=O)N[C@@H](Cc1ccc(O)cc1)C(=O)NCC(=O)N[C@@H](C)C(=O)N[C@@H](CC(N)=O)C(=O)N[C@H](C(=O)N[C@H](C(=O)N[C@@H](CCSC)C(=O)N[C@@H](CCC(N)=O)C(=O)N[C@@H](CC(N)=O)C(=O)N[C@@H](Cc1c[nH]cn1)C(=O)NCC(N)=O)[C@@H](C)O)C(C)C)C(C)C)[C@@H](C)O [ANK peptide] (Ac-KGNSALHVASQHGHLGCIQTLVRYGANVTMQNHG-NH2) | ~20 | – | – |
| EGFP-ANK: ANK peptide expressed as a fusion protein with its amino-terminal linked to EGFP protein, approximately 37 kDa ({EGFP}-KGNSALHVASQHGHLGCIQTLVRYGANVTMQNHG) | – | not detected | ~2 |
